Legend:
[1] = system: 5′-[…]-3′ (poly GC) DNA duplex; assay: FRET DNA melting, poly GC duplex; type: binding; conditions: 5′-AATAGGGGGTCGCCTATT-3′
Method: FRET DNA melting studies were undertaken on 15 and 16 using two fluorescently labelled sequences. The sequences (FIG. 1) were designed to represent poly AT and poly GC sequences.
The short duplexes used in this FRET study are relatively unstable in the duplex form with a melting temperature below 30° C. so that, in the absence of ligand, a large part of the melting occurs below the starting temperature of the experiment. However, it can be observed that 15 stabilizes the duplex form, producing increases in melting temperature with ΔTm values of […] for 5′-AAAAAAAGAAAAAATIT-3′ (FIG. 2, top panel), and ˜25° C. (FIG. 2, bottom panel).
Oligonucleotides were obtained from ATDbio (Southampton, UK) in lyophilised form. […]
The reaction mixture was comprised of 4 μL of 250 mM phosphate buffer (final concentration of 50 mM), 4 μL flourophor and 4 μL quencher molecule of the appropriate oligonucleotide for a final concentration of 0.2 μM, 4 μL 5 M sodium chloride (final concentration of 1 M NaCl), and 4 μL of distilled H2O. […] This mixture was analysed without prior annealing.
Fluorescence melting profiles were measured using a Roche LightCycler using a total reaction volume of 20 μL. […] Annealing steps and melting steps were all recorded and changes in fluorescence were measured at 520 nm. […]

[2] = system: "D" DNA fragment; assay: DNA footprinting, random "D" DNA fragment; type: binding; conditions: random "D" DNA sequence
Method: The DNA sequence selectivity profile of the molecules was investigated using a modification of the previously established DNA footprinting assay. Following an overnight incubation of the ligand-DNA complexes, the mixture was mixed with strand separation buffer containing 10 mM EDTA, 10 mM NaOH, 0.1% bromophenol blue, 80% formamide and incubated at 100° C. for 3 min. The mixture was then immediately cooled on ice and run on an 8% denaturing gel.
The preparation of the DS3 DNA fragment (FIG. 5) and the “D” DNA fragment (FIG. 6) has been previously described. Briefly, the sequence which had been cloned into the BamHI site of pUC18 was obtained by cutting with HindIII and EcoRI. Radiolabelled DNA fragments were prepared by filling in the 3′-end of the HindIII site with [α-^32P]dATP using Klenow DNA polymerase (exo-).
The radiolabelled DNA fragment was separated from the remainder of the plasmid DNA on a 6% non-denaturing polyacrylamide gel. […]
Footprinting reactions were performed as previously described using the DNA fragments DS3, which contains tracts of AT/GC bases; and using the “D” DNA fragments which represents a random DNA sequence. […] After gel purification, the radiolabelled DNA was dissolved in 10 mM Tris-HCl pH 7.5 containing 0.1 mM EDTA, at a concentration of about 10 c.p.s per μL as determined on a hand held Geiger counter. […]

SMILES: COc1cc2c(cc1OCCCC(=O)Nc1cc(C(=O)Nc3ccc(-c4cc(C(=O)Nc5ccc(N)cc5)n(C)c4)cc3)n(C)c1)NC[C@@H]1CCCCN1C2=O [Compound 16, (S)—N-(4-Aminophenyl)-4-(4-(4-(4-((2-methoxy-12-oxo-5,6,6a,7,8,9,10,12-octahydrobenzo[e]pyrido[1,2-a][1,4]diazepin-3-yl)oxy)butanamido)-1-methyl-1H-pyrrole-2-carboxamido)phenyl)-1-methyl-1H-pyrrole-2-carboxamide]
- interactivity with the poly-GC sequence (FRET) [1]: little interactivity
- preferred binding sites (footprint) [2]: only three preferred sites were observed during this experiment, and all are primarily AT-rich
